Reference: patent US20090326008A1, “NF-kappa B Inhibitor” (priority 2006, published 2009)

System: NF-κB
Assay: NF-kappaB reporter assay (pNF-kappaB-SEAP) in IL-1β-stimulated MKN-45 cells
Assay type: cell-based, human
Conditions: IL-1β 2 ng/mL for 6 hours, DMSO (0.05%) control = 1.00, triplicate
Method: pNF-kappaB-SEAP was obtained from Clonetech Laboratories Inc.
Cryopreserved MKN-45 cells (product of JCRB (Japanese Collection of Research Bioresources)) were thawed and cultured in a standard medium in an incubator (37° C., 5% CO2). Every three to five days, the cells were recovered by treatment with Trypsin-EDTA, then adequately diluted and subcultured. MKN-45 cells subcultured two or more times with a survival rate of 95% or more were used in each experiment.
The subcultured MKN-45 cells were harvested using Trypsin-EDTA solution, and the number of viable cells was counted. The cells were suspended in a standard medium to yield a 1.5×10^5 cells/mL suspension. A 24-well plate was seeded with 500 μL/well of the cell suspension, and the cells were cultured in an incubator (37° C., 5% CO2).
The day after seeding, transfection was performed according to the following protocol.
(4.1) Preparation of Plasmid Solution 4 μL of 0.1 μg/μL pNFkappaB-SEAP was placed into each well and diluted with 50 μL of OPTI-MEM I (product of Invitrogen Japan K.K.) by mixing by inversion.
1 μL of Lipofectamine 2000 reagent (product of Invitrogen) was placed into each well and diluted with 50 μL of OPTI-MEM I (product of Life Technologies Inc.) by mixing by inversion. The mixture was allowed to stand at room temperature for 5 to 10 minutes to prepare a Lipofectamine dilution.
The plasmid solution and the Lipofectamine dilution were mixed by inversion and allowed to stand at room temperature for 20 to 30 minutes to prepare a transfection mixture.
The culture medium was removed from the 24-well plate by suction. While care was taken not to dry the subcultured MKN-45 cells, the inner surface of the wells was washed with 1 mL/well of PBS. After the medium was replaced with 500 μL/well of OPTI-MEM I (product of Life Technologies Inc.), 100 μL/well of the transfection mixture was added, and the cells were cultured in a incubator (37° C., 5% CO2). After about 5 hours of incubation, the medium was replaced with a standard medium, and the cells were further cultured in a CO2 incubator (37° C., 5% CO2) until the following day.
On the following morning, the culture medium supernatant was removed by suction and replaced with 1 mL/well of the test compound solution or control solution diluted with a standard medium. The cells were cultured in a CO2 incubator (37° C., 5% CO2) for 1 hour. Each experiment was performed in triplicate.
200 ng/mL IL-1β was added in an amount of 10 μL/well (final concentration: 2 ng/mL), and the cells were cultured in a CO2 incubator (37° C., 5% CO2) for 6 hours.
A reporter assay was performed using Reporter Assay Kit-SEAP (product of Toyobo Co.) according to the manufacturer's protocol.
More specifically, 500 μL of the culture broth was transferred into a tube and centrifuged at 15,000 rpm for 5 minutes at 4° C. The supernatant was transferred into a 96-well white plate. The positive control included in the Reporter Assay Kit-SEAP, and a standard medium as a blank control were each added in an amount of 20 μL/well to the 96-well white plate. Further, an inhibitor for inhibiting the AP activity of the MKN-45 cells was added in an amount of 20 μL/well. After sealing the plate, the contents were mixed well. The plate was placed into a CO2 incubator (37° C., 5% CO2) and allowed to stand for 30 minutes. Subsequently, the plate was allowed to stand on ice for 1 minute, followed by addition of 160 μL/well of Lumi-Phos Plus (a chemiluminescent substrate, product of Lumigen Inc.). The plate was sealed again and placed in a light-shielded state into a CO2 incubator (37° C., 5% CO2). After the plate was allowed to stand for 15 to 30 minutes, luminescence was measured for about 5 to about 10 seconds using a luminometer.
The results of the reporter assay were expressed as Percent Control (or Inhibition), calculated according to the following formulae. The luminescence of each sample was calculated by subtracting the average of blank samples.

COc1ccc(CC2SC(=S)NC2=O)c2c1N(CCC(C)C)C(=O)CC2 (stereo not shown) [Test Compound 965]
NF-kappaB reporter (SEAP luminescence) IL-1b(+) mean, relative to control: 0.68
